Laboratory results as given in patent US20140303092A1 (CHIMERIX, INC., priority 2011, published 2014).
“And” between values parts separate entries of the source, which are not always exact repeats. Equal values may be shown once.

Tested on: CMV
Experiment: Study HDP-CDV-201: prevention or control of CMV infection in R+ HSCT recipients (efficacy)
Type: in vivo, human (adult allogeneic HSCT recipients)
Settings: for Time to CMV DNAemia (≧100 copies/mL), Mean / Number of Subjects who had CMV DNAemia (≧100 copies/mL) by the end of study / Time to CMV DNAemia (≧100 copies/mL), Median: CMV DNA negative at baseline; for Difference (HDP-CDV minus placebo) in rate of CMV DNAemia ≧1,000 copies/mL / Rate of CMV DNAemia ≧1,000 copies/mL during the treatment period: CMV modified strata: positive; for Discontinuation: Emergence of CMV disease / Discontinuation: Initiation of alternate CMV therapy: active treatment period
Description: The clinical study of the current invention (HDP-CDV-201) was a 9-11 week randomized, placebo-controlled, double-blind, dose-escalation study (40 mg weekly [QW], 100 mg QW, 200 mg QW, 200 mg twice-weekly [BIW], and 100 mg BIW) of HDP-CDV for the prevention of CMV infection post-HCT. Treatment was initiated at the time of engraftment and continued until Week 13 post-HCT. HDP-CDV, at various doses, was active and well tolerated in the prevention CMV infection or disease.
Clinical Studies of HDP-CDV were performed and described in detail in the following Examples. For example, HDP-CDV-201 is a placebo-controlled, dose-escalating trial in HSCT CMV (R+) recipients, evaluating the ability of HDP-CDV to prevent or control CMV infection was carried out. Five cohorts were established in which participants or subjects received either placebo or the HDP-CDV orally, in doses ranging from 40 mg weekly (QW) to 200 mg twice weekly (BIW). Subjects who were post-HSCT were enrolled at the time of engraftment and randomized to HDP-CDV or placebo (3 to 1 ratio) and received blinded therapy until approximately 100 day post-transplantation. HDP-CDV doses were 40 mg QW, 100 mg QW, 200 mg QW, 200 mg BIW and 100 mg BIW. Escalation to the next dose was decided by the data monitoring committee after review of the safety data from the previous Cohort. Subjects who developed CMV disease or CMV infection requiring pre-emptive therapy with local standard of care were discontinued from blinded therapy and followed for 4 weeks. Subjects who completed treatment with blinded therapy were followed for 8 weeks post-therapy.
The primary endpoint was defined as the incidence of CMV disease at any time during treatment or CMV DNAemia≧200 copies/mL at the end of treatment. All subjects who received at least one dose of drug/placebo and had at least one efficacy evaluation post baseline were included in the primary analysis, regardless of their CMV DNAemia status (negative or positive) at baseline (mITT population). Results for the pooled HDP-CDV Cohorts and for each Cohort separately were analyzed versus that for pooled placebo.
The primary efficacy measure for this study was treatment failure, defined as the occurrence of CMV infection, defined as CMV DNAemia>200 copies/mL at the End of Treatment or diagnosis of CMV disease at any time during the treatment period. For the analysis, the following definitions apply:
For subjects who completed the treatment phase of the study, the End of Treatment was defined as the latest assessment from date of the last dose of study drug and up to 7 days for QW dosing, or the date of the last dose of study drug and up to 4 days for BIW dosing. For subjects who discontinued during the treatment phase of the study, the End of Treatment was defined as the date of the last dose of study drug.
The time to event was defined as the period between FDD and date of first occurrence of the event of interest (inclusive). The events included onset of CMV DNAemia, onset of CMV disease, and discontinuation because of excluded anti-CMV medications. Time to event/onset was derived as (the event/onset date—FDD)+1.
As detailed in the Statistical Analysis Plan, a modified CMV stratum was defined prior to conducting the statistical analysis based upon polymerase chain reaction (PCR) results from the central laboratory. If any positive CMV DNA value in plasma was collected before the first dose of study drug (including Screening, Pre-dose, (combined Screening/Pre-dose), CMV for stratification, and FDD), then the subject was placed into the modified CMV positive (≧100 copies/mL) stratum, otherwise the subject was in the modified CMV negative stratum. […]

[1] = 200 mg BIW/QW, modified CMV negative stratum
[2] = 200 mg BIW, CMV modified strata: negative
[3] = 200 mg BIW, modified CMV negative stratum
[4] = 200 mg QW, CMV modified strata: negative

CCCCCCCCCCCCCCCCOCCCOP(=O)(O)COC(CO)Cn1ccc(N)nc1=O (stereo not drawn) [HDP-CDV]
Time to CMV DNAemia (≧100 copies/mL), Mean (100 mg QW, treatment period, censored values not included): 38.8 days | Number of Subjects who had CMV DNAemia (≧100 copies/mL) by the end of study (100 mg QW, whole study period): 8 | Time to CMV DNAemia (≧100 copies/mL), Mean (100 mg QW, whole study period): 53.4 days | Time to CMV DNAemia (≧100 copies/mL), Median (100 mg QW, whole study period): 38.5 days | % CMV Event Rate: Incidence of CMV DNAemia >100 copies/mL During Treatment (Fisher analysis, ref 14.3.3.2.1) [1]: 4 (18.2%) subjects (%) | % CMV Event Rate: Incidence of CMV DNAemia ≧1,000 copies/mL at any time during treatment [1]: 0 subjects (%) | Difference (HDP-CDV minus placebo) in infection rate [2]: −16.2% | Difference (HDP-CDV minus placebo) in rate of CMV DNAemia ≧1,000 copies/ml [2]: −31.9% | Rate of CMV DNAemia ≧1,000 copies/ml during the treatment period [2]: 0% | Rate of CMV Disease or End of Treatment CMV Infection [2]: 13.6% | Difference (HDP-CDV minus placebo) in rate of CMV DNAemia ≧1,000 copies/mL (200 mg BIW): −58.3% | Rate of CMV DNAemia ≧1,000 copies/mL during the treatment period (200 mg BIW): 25% | Rate of CMV Disease or End of Treatment CMV Infection (200 mg BIW, aGVHD randomization strata: negative): 24.1% | Difference (HDP-CDV minus placebo) in infection rate (200 mg BIW, aGVHD strata: negative): −7.9% | Discontinuation: Emergence of CMV disease (200 mg BIW): 0 Subject n (%) | Discontinuation: Initiation of alternate CMV therapy (200 mg BIW): 5 (16.7%) Subject n (%) | Difference (HDP-CDV minus placebo) in rate of CMV DNAemia ≧1000 copies/mL (200 mg BIW, mITT): −35.7% | Difference (HDP-CDV minus placebo) in rate of CMV disease or end of treatment CMV infection (200 mg BIW, mITT): −14.0% | Subjects Receiving Antiviral Therapy and/or had CMV disease (200 mg BIW, mITT): 5 (16.7%) subjects (%) | Subjects without a CMV event (200 mg BIW, mITT): 25 (83.3%) subjects (%) | Time to Antiviral Therapy, Median (200 mg BIW, mITT): 15.0 days | Rate of CMV Disease or End of Treatment CMV Infection (≧200 copies/ml) (200 mg BIW, mITT, missing=infection): 23% and 23.3% | Rate of CMV DNAemia ≧1000 copies/mL during the treatment period (200 mg BIW, mITT, post hoc): 7% and 6.7% | Time to Antiviral Therapy, Mean (200 mg BIW, mITT, censored values not included): 21.6 days | Subjects Who Had CMV-related Event (CMV disease, CMV DNAemia ≧1,000 c/mL or initiation of anti-CMV treatment) [3]: 3 (13.6%) subjects (%) | Subjects without a CMV-related event [3]: 20 (86.4%) subjects (%) | Developed CMV DNAemia (≧100 copies/mL) during the treatment period (200 mg BIW, plasma CMV DNA negative at baseline, mITT): 4 (17.4%) N(%) | Time to CMV DNAemia (≧100 copies/mL), Median (200 mg BIW, treatment period): 25.5 days | Time to CMV DNAemia (≧100 copies/mL), Mean (200 mg BIW, treatment period, censored values not included): 24.8 days | Median Survival Time to CMV DNAemia (Kaplan-Meier) (200 mg BIW, whole study period): 130 days | Number of Subjects who had CMV DNAemia (≧100 copies/mL) by the end of study (200 mg BIW, whole study period): 9 | Time to CMV DNAemia (≧100 copies/mL), Mean (200 mg BIW, whole study period): 49.0 days | Time to CMV DNAemia (≧100 copies/mL), Median (200 mg BIW, whole study period): 42.0 days | Difference (HDP-CDV minus placebo) in infection rate [4]: −9.1% | Difference (HDP-CDV minus placebo) in rate of CMV DNAemia ≧1,000 copies/ml [4]: −25.0% | Rate of CMV DNAemia ≧1,000 copies/ml during the treatment period [4]: 6.9% | Rate of CMV Disease or End of Treatment CMV Infection [4]: 20.7% | Difference (HDP-CDV minus placebo) in rate of CMV DNAemia ≧1,000 copies/mL (200 mg QW): −33.3% | Rate of CMV DNAemia ≧1,000 copies/mL during the treatment period (200 mg QW): 50.0% | Rate of CMV Disease or End of Treatment CMV Infection (200 mg QW, aGVHD randomization strata: negative): 30.8% | Difference (HDP-CDV minus placebo) in infection rate (200 mg QW, aGVHD strata: negative): −1.3% | Discontinuation: Emergence of CMV disease (200 mg QW): 0 Subject n (%) | Discontinuation: Initiation of alternate CMV therapy (200 mg QW): 7 (17.9%) Subject n (%) | Difference (HDP-CDV minus placebo) in rate of CMV DNAemia ≧1000 copies/mL (200 mg QW, mITT): −24.4% | Difference (HDP-CDV minus placebo) in rate of CMV disease or end of treatment CMV infection (200 mg QW, mITT): −6.5%
